PubChem BioAssay AID330 (DTP/NCI, 2004)
Where “and” joins values, the source holds several entries; their conditions need not be identical. Equal entries are not always repeated. Inconclusive results and toxic doses are left out.

Tested on: P388 leukemia ip, CD2F1 mice, survival T/C
Assay: NCI In Vivo Anticancer Drug Screen. Data for tumor model P388 Leukemia (intraperitoneal) in CD2F1 (CDF1) mice
Conditions: endpoint: median survival time, higher = longer survival
Outline: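 Mice carrying the transplanted tumor received test compound or vehicle. Survival was recorded in each group, and the value is the treated-group measurement divided by that of the vehicle-treated control group.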

[1] = dose: 12.5 mg/kg/injection, schedule: Q01DX009 (ip), vehicle: saline with Tween-80
[2] = dose: 25.0 mg/kg/injection, schedule: Q01DX009 (ip), vehicle: saline with Tween-80
[3] = dose: 50.0 mg/kg/injection, schedule: Q01DX009 (ip), vehicle: saline
[4] = dose: 60.0 mg/kg/injection, schedule: Q01DX005 (ip), vehicle: Klucel (hydroxypropylcellulose) (HPC)
[5] = dose: 120.0 mg/kg/injection, schedule: Q01DX005 (ip), vehicle: Klucel (hydroxypropylcellulose) (HPC)
[6] = dose: 240.0 mg/kg/injection, schedule: Q01DX005 (ip), vehicle: Klucel (hydroxypropylcellulose) (HPC)
[7] = dose: 60.0 mg/kg/injection, schedule: Q01DX005 (ip), vehicle: saline with Tween-80
[8] = dose: 120.0 mg/kg/injection, schedule: Q01DX005 (ip), vehicle: saline with Tween-80
[9] = dose: 12.5 mg/kg/injection, schedule: Q01DX005 (ip), vehicle: Klucel (hydroxypropylcellulose) (HPC)
[10] = dose: 25.0 mg/kg/injection, schedule: Q01DX005 (ip), vehicle: Klucel (hydroxypropylcellulose) (HPC)
[11] = dose: 50.0 mg/kg/injection, schedule: Q01DX009 (ip), vehicle: saline with Tween-80
[12] = dose: 100.0 mg/kg/injection, schedule: Q01DX009 (ip), vehicle: saline with Tween-80
[13] = dose: 200.0 mg/kg/injection, schedule: Q01DX009 (ip), vehicle: saline with Tween-80
[14] = dose: 240.0 mg/kg/injection, schedule: Q01DX005 (ip), vehicle: saline with Tween-80
[15] = dose: 50.0 mg/kg/injection, schedule: Q01DX005 (ip), vehicle: Klucel (hydroxypropylcellulose) (HPC)

In the case of `CN(CC(O)C(O)C(O)C(O)CN(C)N=O)N=O` (stereo unspecified), the T/C (dose: 100.0 mg/kg/injection, schedule: Q01DX001 (ip), vehicle: saline) is reported as 115 % of control, the T/C (dose: 200.0 mg/kg/injection, schedule: Q01DX001 (ip), vehicle: saline) is reported as 100 % of control and the T/C (dose: 400.0 mg/kg/injection, schedule: Q01DX001 (ip), vehicle: saline) is reported as 110 % of control.

For `Brc1ccc[n+](CCc2ccccc2)c1`, the T/C [1] was 111 % of control and the T/C [2] was 98 % of control.

For `COc1ccc(CC2C(=O)OC(=O)C2Cc2ccc(OC)c(OC)c2)cc1OC` (stereo unspecified), the T/C (dose: 100.0 mg/kg/injection, schedule: Q04DX003 (ip), vehicle: saline with Tween-80) was 100 % of control, the T/C (dose: 200.0 mg/kg/injection, schedule: Q04DX003 (ip), vehicle: saline with Tween-80) was 90 % of control and the T/C (dose: 400.0 mg/kg/injection, schedule: Q04DX003 (ip), vehicle: saline with Tween-80) was 100 % of control.

With `CCCCCC(=O)Cc1cc(OC)cc(O)c1C(=O)Oc1cc(CCCCC)c(C(=O)O)c(OC)c1` the T/C (dose: 0.25 mg/kg/injection, schedule: Q01DX009 (ip), vehicle: saline with Tween-80) was 101 % of control, the T/C (dose: 0.5 mg/kg/injection, schedule: Q01DX009 (ip), vehicle: saline with Tween-80) was 104 % of control and the T/C (dose: 1.0 mg/kg/injection, schedule: Q01DX009 (ip), vehicle: saline with Tween-80) was 108 % of control.

`Nc1ccc2c(c1)C1C(C3C2C2(Cl)C(Cl)=C(Cl)C3(Cl)C2(Cl)Cl)C2(Cl)C(Cl)=C(Cl)C1(Cl)C2(Cl)Cl` (stereo unspecified) was tested, and the T/C (dose: 12.5 mg/kg/injection, schedule: Q01DX009 (ip), vehicle: saline) was 97 % of control, the T/C (dose: 25.0 mg/kg/injection, schedule: Q01DX009 (ip), vehicle: saline) was 109 % of control and the T/C [3] was 100 % of control and 95 % of control. The T/C (dose: 100.0 mg/kg/injection, schedule: Q01DX009 (ip), vehicle: saline) was 100 % of control and the T/C (dose: 200.0 mg/kg/injection, schedule: Q01DX009 (ip), vehicle: saline) was 98 % of control.

In the case of `O=C(N/N=C/c1ccccn1)c1ccccc1`, the T/C [4] is reported as 102 % of control, the T/C [5] is reported as 97 % of control and the T/C [6] is reported as 100 % of control.

In the case of `CC(=Nc1ccc(N(C)C)cc1)c1ccccc1`, the T/C [7] is reported as 98 % of control and the T/C [8] is reported as 98 % of control.

With `Cc1cc(N/N=C/c2cccc3ccccc23)c2cc3c(cc2n1)OCO3` the T/C (dose: 6.25 mg/kg/injection, schedule: Q01DX005 (ip), vehicle: Klucel (hydroxypropylcellulose) (HPC)) was 95 % of control, the T/C [9] was 100 % of control and the T/C [10] was 112 % of control.

With `CCOC(=O)C(=CN(C)c1ccccc1)C(=O)OCC` the T/C [11] was 108 % of control, the T/C [12] was 108 % of control and the T/C [13] was 101 % of control.

With `CCCCCCCC/C=C\CCCCCCCC(=O)OCC(COC(=O)CCCCCCC/C=C\CCCCCCCC)OC(=O)N(CCCl)CCCl` the T/C (dose: 30.0 mg/kg/injection, schedule: Q01DX005 (ip), vehicle: saline with Tween-80) was 118 % of control, the T/C [7] was 115 % of control and the T/C [8] was 174 % of control. For the same molecule, the T/C [14] was 205 % of control and 259 % of control.

In the case of `CN1C(=O)C(=O)N2c3ccc(Cl)cc3C3(c4ccccc4)N=CC12O3` (stereo unspecified), the T/C (dose: 100.0 mg/kg/injection, schedule: Q04DX003 (ip), vehicle: Klucel (hydroxypropylcellulose) (HPC)) is reported as 109 % of control, the T/C (dose: 200.0 mg/kg/injection, schedule: Q04DX003 (ip), vehicle: Klucel (hydroxypropylcellulose) (HPC)) is reported as 112 % of control and the T/C (dose: 400.0 mg/kg/injection, schedule: Q04DX003 (ip), vehicle: Klucel (hydroxypropylcellulose) (HPC)) is reported as 113 % of control.

With `COc1ccc(OC)c(NC(=S)NC(=O)c2cccc(Br)c2)c1` the T/C [7] was 95 % of control, the T/C [8] was 92 % of control and the T/C [14] was 89 % of control.

With `O=S1(=O)C(c2cccc(F)c2)=C(O)c2cc3ccccc3nc21` the T/C [11] was 104 % of control, the T/C [12] was 97 % of control and the T/C [13] was 104 % of control.

`CNC(=O)C(C(=O)NC)n1cnc(C(=O)OC)c1O` was tested, and the T/C (dose: 60.0 mg/kg/injection, schedule: Q01DX005 (ip), vehicle: water) was 108 % of control, the T/C (dose: 120.0 mg/kg/injection, schedule: Q01DX005 (ip), vehicle: water) was 107 % of control and the T/C (dose: 240.0 mg/kg/injection, schedule: Q01DX005 (ip), vehicle: water) was 107 % of control.

With `S=C1N(c2ccc(Cl)cc2)C2=C(N=Nc3ccccc3Cl)C(=Nc3ccccc3S2)N1c1ccccn1` the T/C (dose: 100.0 mg/kg/injection, schedule: Q01DX005 (ip), vehicle: saline with Tween-80) was 108 % of control.

For `COc1ccc(-c2cc(=O)cc(C(N)=O)o2)cc1`, the T/C [7] was 101 % of control, the T/C [8] was 97 % of control and the T/C [14] was 96 % of control.

In the case of `Cc1ccc(S(=O)(=O)OC2CCCC2)cc1`, the T/C (dose: 50.0 mg/kg/injection, schedule: Q01DX009 (ip), vehicle: other) is reported as 100 % of control, the T/C (dose: 100.0 mg/kg/injection, schedule: Q01DX009 (ip), vehicle: other) is reported as 103 % of control and the T/C (dose: 200.0 mg/kg/injection, schedule: Q01DX009 (ip), vehicle: other) is reported as 89 % of control.

For `COP(=S)(OC)SCSc1ccc(Cl)cc1`, the T/C [1] was 89 % of control and the T/C [2] was 91 % of control.

With `CC[CH2][Sn]([CH2]CC)([O]C(C)=O)[c]1ccccc1` the T/C (dose: 1.56 mg/kg/injection, schedule: Q01DX009 (ip), vehicle: saline) was 90 % of control, the T/C (dose: 3.12 mg/kg/injection, schedule: Q01DX009 (ip), vehicle: saline) was 86 % of control and the T/C (dose: 6.25 mg/kg/injection, schedule: Q01DX009 (ip), vehicle: saline) was 87 % of control. For the same molecule, the T/C [3] was 113 % of control.

With `Nc1ncc2c(n1)CSCC2=O` the T/C [7] was 98 % of control, the T/C [8] was 100 % of control and the T/C [14] was 90 % of control.

In the case of `O=[N+]([O-])O.[Ga]`, the T/C (dose: 6.25 mg/kg/injection, schedule: Q01DX005 (ip), vehicle: saline) is reported as 100 % of control, the T/C (dose: 6.25 mg/kg/injection, schedule: Q01DX010 (ip), vehicle: saline) is reported as 100 % of control and the T/C (dose: 12.5 mg/kg/injection, schedule: Q01DX005 (iv), vehicle: saline) is reported as 99 % of control. The T/C (dose: 12.5 mg/kg/injection, schedule: Q01DX010 (ip), vehicle: saline) was 100 % of control, the T/C (dose: 25.0 mg/kg/injection, schedule: Q01DX005 (ip), vehicle: saline) was 100 % of control and 123 % of control and the T/C (dose: 25.0 mg/kg/injection, schedule: Q01DX005 (iv), vehicle: saline) was 96 % of control. For the same molecule, the T/C (dose: 25.0 mg/kg/injection, schedule: Q01DX010 (ip), vehicle: saline) was 118 % of control, the T/C (dose: 50.0 mg/kg/injection, schedule: Q01DX005 (iv), vehicle: saline) was 98 % of control and 91 % of control and the T/C (dose: 50.0 mg/kg/injection, schedule: Q01DX010 (ip), vehicle: saline) was 100 % of control.

For `O=C(Nc1ccc(Cl)c(Cl)c1)O/N=C/c1ccncc1`, the T/C (dose: 50.0 mg/kg/injection, schedule: Q01DX009 (ip), vehicle: saline + alcohol) was 96 % of control, the T/C (dose: 100.0 mg/kg/injection, schedule: Q01DX009 (ip), vehicle: saline + alcohol) was 89 % of control and the T/C (dose: 200.0 mg/kg/injection, schedule: Q01DX009 (ip), vehicle: saline + alcohol) was 89 % of control.

`C=C1C(=O)OC2/C=C(CO)/C=C\C3OC3(C)CC(OC(=O)/C(=C/C)CO)C12` (stereo unspecified) was tested, and the T/C [9] was 106 % of control and 97 % of control, the T/C [10] was 99 % of control and 103 % of control and 116 % of control and the T/C [15] was 109 % of control and 111 % of control.

With `C=C(C)C1Cc2cc(C(C)=O)c(O)c(OC)c2O1` (stereo unspecified) the T/C [10] was 101 % of control, the T/C [15] was 108 % of control and the T/C (dose: 100.0 mg/kg/injection, schedule: Q01DX005 (ip), vehicle: Klucel (hydroxypropylcellulose) (HPC)) was 97 % of control. The T/C (dose: 200.0 mg/kg/injection, schedule: Q01DX005 (ip), vehicle: Klucel (hydroxypropylcellulose) (HPC)) was 99 % of control.

For `Brc1ccc(C2=CSC3=NCCN23)cc1`, the T/C (dose: 1.56 mg/kg/injection, schedule: Q01DX009 (ip), vehicle: saline with Tween-80) was 97 % of control, the T/C (dose: 3.12 mg/kg/injection, schedule: Q01DX009 (ip), vehicle: saline with Tween-80) was 94 % of control and the T/C (dose: 6.25 mg/kg/injection, schedule: Q01DX009 (ip), vehicle: saline with Tween-80) was 106 % of control and 114 % of control and 93 % of control. The T/C [1] was 100 % of control and 103 % of control and 122 % of control, the T/C (dose: 18.75 mg/kg/injection, schedule: Q01DX009 (ip), vehicle: saline with Tween-80) was 93 % of control and the T/C [2] was 108 % of control and 113 % of control.

In the case of `CN(C)c1ccc(C2N(C)CCN2C)cc1`, the T/C [7] is reported as 93 % of control, the T/C [8] is reported as 99 % of control and the T/C [14] is reported as 103 % of control.

In the case of `CC(/C=C/c1ccc(O)cc1)=N\NC(N)=O`, the T/C (dose: 30.0 mg/kg/injection, schedule: Q01DX005 (ip), vehicle: Klucel (hydroxypropylcellulose) (HPC)) is reported as 103 % of control, the T/C [4] is reported as 99 % of control and the T/C [5] is reported as 104 % of control. For the same molecule, the T/C [6] was 101 % of control.
